Laboratory results published in publication PMC9721424, “Novel N-methylsulfonyl-indole derivatives: biological activity and COX-2/5-LOX inhibitory effect with improved gastro protective profile and reduced cardio vascular risks” (Journal of Enzyme Inhibition and Medicinal Chemistry, 2022).
Like-named read-outs stand apart in the source and are kept apart here.

Key:
[1] = system: TNF-α in RAW264.7 macrophage cells; experiment: In vitro measurement of TNF-α in RAW264.7 macrophage cells (RT-qPCR); assay type: cell-based
Source text: Both Lipopolysaccharides (LPS) and hispidin were purchased from Sigma (Sigma-Aldrich, St. Louis, MO, USA)[40]. The foetal bovine serum (FBS) and Dulbecco’s modified Eagle’s medium (DMEM) were purchased from Hyclone (General Electric Healthcare Life Sciences, Mississauga, Canada), penicillin streptomycin (P/S) was purchased from Solarbio (Solarbio life sciences, Beijing, P. R. China). Results of all in vitro anti-inflammatory screening were obtained from the confirmatory diagnostic unit, VACSERA, Egypt.
DMEM was used to cultivate the macrophage cells RAW264.7 (Shanghai BOGO Industrial Co., Ltd., Shanghai, China), and supplemented with 10% FBS and 1% P/S (100 U/ml and […], respectively). […] They were treated with various concentrations of hispidin, then with 1 μg/ml LPS for the indicated time.
PBS (1 ml/well) was used to wash the cells in 24-well plates. […] For the experiments, CL Buffer included MgCl2 (M1028; Sigma) or RNasin Plus RNase Inhibitor (N2615; Promega). Before use, both Bio-Rad SPR and CL buffer were equilibrated to room temperature. […] Carefully, the resulting lysates were collected and either analysed immediately or stored frozen ([…]).
RT-qPCR analysis was performed in one-step SYBR Green RT-qPCR. […] A CFX96 real-time PCR instrument (Bio-Rad) was used under the following protocol: 50uC for 10 min, 95uC for 5 min, 95uC for 10 s/61uC for 15 s/72uC for 30 s.
Total RNA purified from cells was used as an RT-qPCR quantification standard.

5-LOX enzyme = molecular target: T1, 5-LOX enzyme (Homo sapiens, UniProt P09917); experiment: 5-LOX inhibition, Human Lipoxygenase Inhibitor Screening Assay (EIA) kit; assay type: biochemical
T1 construct: purchased Cayman Chemical K980-100
T1 sequence (P09917 1-674): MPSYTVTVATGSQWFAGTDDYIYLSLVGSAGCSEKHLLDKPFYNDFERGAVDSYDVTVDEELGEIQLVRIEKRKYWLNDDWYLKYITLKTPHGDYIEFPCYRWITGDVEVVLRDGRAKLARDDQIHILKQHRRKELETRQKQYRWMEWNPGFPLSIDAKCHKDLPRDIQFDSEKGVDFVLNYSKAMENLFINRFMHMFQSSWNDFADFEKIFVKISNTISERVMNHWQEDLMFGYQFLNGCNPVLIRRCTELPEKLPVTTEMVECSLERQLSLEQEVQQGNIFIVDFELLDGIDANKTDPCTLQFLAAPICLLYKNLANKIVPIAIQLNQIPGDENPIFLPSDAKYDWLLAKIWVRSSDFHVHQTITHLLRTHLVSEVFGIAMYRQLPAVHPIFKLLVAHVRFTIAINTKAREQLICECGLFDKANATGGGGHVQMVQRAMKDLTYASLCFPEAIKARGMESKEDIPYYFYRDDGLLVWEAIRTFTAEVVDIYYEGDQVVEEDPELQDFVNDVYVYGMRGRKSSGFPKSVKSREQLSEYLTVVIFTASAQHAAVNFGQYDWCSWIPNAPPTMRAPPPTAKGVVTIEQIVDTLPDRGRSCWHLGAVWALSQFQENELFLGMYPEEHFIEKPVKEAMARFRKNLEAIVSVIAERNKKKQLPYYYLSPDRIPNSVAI
Experimental: The ability of the test compounds to inhibit the 5-LOX enzyme (IC50 value, μM) was detected using the Cayman Human Lipoxygenase Inhibitor Screening Assay (EIA) kit (catalog no. K980-100, Cayman Chemical). The IC50 values of test compounds were measured in µM according to the manufacturer’s instructions and reported method.

DPPH free radical assay = assay type: biochemical; conditions: 540 nm, relative to Trolox; for DPPH test results (µM trolox equivalent/ 1mg sample ± SD): 30 min
Experimental: Preparation of samples was occurred at the following concentrations: Samples 3a, 4a, 5b, 5d and 5e at final concentrations of 0.5 mg/ml in methanol: DMSO 9:1 v/v. Samples 4b and 4d at final concentrations 0.025 mg/ml in methanol: DMSO 9:1 v/v, sample 5a at final concentrations 0.25 mg/ml in methanol: DMSO 9:1 v/v, Sample 4c, 5c and 4e at final concentrations 0.05 mg/ml in methanol: DMSO 9:1 v/v, sample 3b at final concentration 0.75 mg/ml methanol: DMSO 9:1 v/v. A stock solution of 100 µM concentration of Trolox, a standard used in this experiment, was prepared in methanol from which seven concentrations were prepared, including 50, 40, 30, 20, 15, 10 and 5 µM.
The DPPH (2,2-diphenyl-1-picryl-hydrazyl-hydrate) free radical assay was carried out according to the method of Boly et al. 2016[39]. Briefly, freshly prepared DPPH reagent (100 µl, 0.1% in methanol) was added to 100 µl of the sample on 96 well plates (n = 6). The reaction was incubated at room temp for 30 min in the dark. After completion of the incubation time, the reduction in DPPH colour intensity was measured at 540 nm. Data obtained was represented as means ± SD, according to the following equation, percentage inhibition = [(Average absorbance of blank – average absorbance of the test)/(Average absorbance of blank)] *100. The results were recorded using a microplate reader, FluoStar Omega.
Microsoft Excel® was used to analyse the obtained results. The IC50 values were calculated using Graph pad Prism 6® by converting the concentrations to their logarithmic value and selecting the non-linear inhibitor regression equation (log (inhibitor) vs. normalised response – variable slope equation). The methods used and the final test report (R-SO7320) were obtained from Nawah Scientific.

COX-2 = molecular target: T2, COX-2 (Ovis aries, UniProt P79208); experiment: COX-2 inhibition, enzyme immune assay (EIA) kit; assay type: biochemical, ovine; conditions: for S.I (IC50 COX-1/IC50 COX-2): COX-2 selectivity index; for SI: lab report, COX1/COX2
T2 sequence (P79208 17-603): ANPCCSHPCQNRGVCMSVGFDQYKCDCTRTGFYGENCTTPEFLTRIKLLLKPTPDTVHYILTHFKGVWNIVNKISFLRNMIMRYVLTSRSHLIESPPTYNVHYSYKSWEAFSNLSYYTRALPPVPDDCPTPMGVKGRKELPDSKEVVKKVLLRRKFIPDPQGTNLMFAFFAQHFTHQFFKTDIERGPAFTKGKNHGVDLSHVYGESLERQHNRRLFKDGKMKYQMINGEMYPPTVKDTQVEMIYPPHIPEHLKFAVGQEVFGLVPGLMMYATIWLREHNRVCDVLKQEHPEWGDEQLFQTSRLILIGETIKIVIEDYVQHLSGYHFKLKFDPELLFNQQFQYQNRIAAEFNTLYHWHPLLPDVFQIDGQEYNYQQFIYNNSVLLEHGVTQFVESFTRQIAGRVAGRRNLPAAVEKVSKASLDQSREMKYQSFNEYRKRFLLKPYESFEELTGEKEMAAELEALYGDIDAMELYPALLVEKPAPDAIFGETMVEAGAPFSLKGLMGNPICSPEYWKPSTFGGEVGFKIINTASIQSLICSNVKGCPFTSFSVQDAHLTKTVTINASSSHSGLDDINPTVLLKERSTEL

ovine COX-1 = molecular target: T3, ovine COX-1 (Ovis aries, UniProt P05979); experiment: COX-1 inhibition, enzyme immune assay (EIA) kit
T3 sequence (P05979 25-600): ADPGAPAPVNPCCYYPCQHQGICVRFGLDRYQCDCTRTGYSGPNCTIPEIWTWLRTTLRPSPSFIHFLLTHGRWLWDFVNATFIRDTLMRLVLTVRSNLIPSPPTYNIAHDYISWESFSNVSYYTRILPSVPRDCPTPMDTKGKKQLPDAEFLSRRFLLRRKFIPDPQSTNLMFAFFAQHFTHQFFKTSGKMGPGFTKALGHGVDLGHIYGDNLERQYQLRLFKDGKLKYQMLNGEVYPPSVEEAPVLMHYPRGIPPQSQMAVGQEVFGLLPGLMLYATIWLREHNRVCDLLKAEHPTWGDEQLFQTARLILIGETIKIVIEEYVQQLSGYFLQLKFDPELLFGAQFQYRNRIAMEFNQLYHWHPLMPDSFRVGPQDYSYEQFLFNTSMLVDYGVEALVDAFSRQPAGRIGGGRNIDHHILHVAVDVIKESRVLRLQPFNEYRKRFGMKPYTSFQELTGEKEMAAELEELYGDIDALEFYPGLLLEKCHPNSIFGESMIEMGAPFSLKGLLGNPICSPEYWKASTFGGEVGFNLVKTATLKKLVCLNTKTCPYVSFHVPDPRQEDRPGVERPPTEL
Source text: Colorimetric enzyme immunoassay (EIA) kits were done to screen for the isozyme-specific inhibition.

Work on `CS(=O)(=O)n1cc(/C=N/N=C2/NCC(=O)S2)c2ccccc21` [Compound 5a] yielded a TNF-α fold change [1] of 0.66, an IC50 (5-LOX enzyme) of 9.23 ± 0.49 µM and a 5-LOX %inh (5-LOX enzyme; conc 0.1 (μM)) of 7.21%. The 5-LOX %inh (5-LOX enzyme; conc 1 (μM)) was 17.4%, the 5-LOX %inh (5-LOX enzyme; conc 10 (μM)) was 50.3% and the 5-LOX %inh (5-LOX enzyme; conc 100 (μM)) was 79%. For the same compound, the “DPPH test results (µM trolox equivalent/ 1mg sample ± SD)” value (DPPH free radical assay) was 12.71 ± 1.16 µM trolox equivalent/ 1mg sample, the “S.I (IC50 COX-1/IC50 COX-2)” value (COX-2) was 0.59 and the SI (COX-2) was 0.592. It also gave a COX1 %inh (ovine COX-1; conc 0.1 (μM)) of 13.6%, a COX1 %inh (ovine COX-1; conc 1 (μM)) of 32.4% and a COX1 %inh (ovine COX-1; conc 10 (μM)) of 59%. It also gave a COX1 %inh (ovine COX-1; conc 100 (μM)) of 85.6% and an IC50 (ovine COX-1; read-out: IC50 COX-1) of 3.95 ± 0.11 µM.
Compound `CC(c1cc2ccccc2s1)N(O)C(N)=O` (stereo not shown) [Zileuton, reference compound] has a 5-LOX %inh (5-LOX enzyme; conc 10 (μM)) of 77.1% and a 5-LOX %inh (5-LOX enzyme; conc 100 (μM)) of 92.8%.
In the case of `CS(=O)(=O)n1cc(/C=N/NC(=S)Nc2ccccc2)c2ccccc21` [Compound 4c, (E)-2{[1-(methylsulfonyl)-1H-indol-3yl]methylene}-N-phenylhydrazinecarbothioamide], the IC50 (5-LOX enzyme) is reported as 4.03 ± 0.21 µM, the 5-LOX %inh (5-LOX enzyme; conc 0.1 (μM)) is reported as 12.1% and the 5-LOX %inh (5-LOX enzyme; conc 1 (μM)) is reported as 37.1%. For the same compound, the 5-LOX %inh (5-LOX enzyme; conc 10 (μM)) was 57.1%, the 5-LOX %inh (5-LOX enzyme; conc 100 (μM)) was 83.8% and the IC50 (5-LOX enzyme; lab report) was 4.03 ± 0.21 µM. The “DPPH test results (µM trolox equivalent/ 1mg sample ± SD)” value (DPPH free radical assay) was 263.29 ± 12.30 µM trolox equivalent/ 1mg sample, the DPPH anti-oxidant activity (DPPH free radical assay; values in text) was “about 263.29 µM Trolox equivalent/mg” and the “S.I (IC50 COX-1/IC50 COX-2)” value (COX-2) was 3.12. For the same compound, the SI (COX-2) was 3.116, the melting point was 220 to 222 °C and the IC50 (ovine COX-1; IC50 COX-1) was 5.01 ± 0.14 µM. It also gave a COX1 %inh (ovine COX-1; conc 0.1 (μM)) of 11%, a COX1 %inh (ovine COX-1; conc 1 (μM)) of 24.7% and a COX1 %inh (ovine COX-1; conc 10 (μM)) of 60.6%. The COX1 %inh (ovine COX-1; conc 100 (μM)) was 83.5%.
Work on `CS(=O)(=O)n1cc(/C=N/NC(N)=O)c2ccccc21` [Compound 3a, (E)-2{[1-(methylsulfonyl)-1H-indol-3yl]methylene}hydrazinecarboxamide] yielded an IC50 (5-LOX enzyme) of 48.8 ± 2.58 µM, a 5-LOX %inh (5-LOX enzyme; conc 0.1 (μM)) of 2.63% and a 5-LOX %inh (5-LOX enzyme; conc 1 (μM)) of 5.83%. The 5-LOX %inh (5-LOX enzyme; conc 10 (μM)) was 18.6%, the 5-LOX %inh (5-LOX enzyme; conc 100 (μM)) was 70.3% and the “DPPH test results (µM trolox equivalent/ 1mg sample ± SD)” value (DPPH free radical assay) was 5.91 ± 1.87 µM trolox equivalent/ 1mg sample. The “S.I (IC50 COX-1/IC50 COX-2)” value (COX-2) was 0.78, the SI (COX-2) was 0.779 and the melting point was 238 to 240 °C. It also gave an IC50 (ovine COX-1; IC50 COX-1) of 21.1 ± 0.6 µM, a COX1 %inh (ovine COX-1; conc 0.1 (μM)) of 4.87% and a COX1 %inh (ovine COX-1; conc 1 (μM)) of 12.4%. For the same compound, the COX1 %inh (ovine COX-1; conc 10 (μM)) was 37.8% and the COX1 %inh (ovine COX-1; conc 100 (μM)) was 71%.
